Here are results for 34 molecules from patent publication US10034886B2, “GLP-1 receptor modulators” (Celgene International II SÀRL, priority 2014, dated 2018).

A value given as a limit tells only on which side of the number the result lay.

T1 sequence (P43220 24-463): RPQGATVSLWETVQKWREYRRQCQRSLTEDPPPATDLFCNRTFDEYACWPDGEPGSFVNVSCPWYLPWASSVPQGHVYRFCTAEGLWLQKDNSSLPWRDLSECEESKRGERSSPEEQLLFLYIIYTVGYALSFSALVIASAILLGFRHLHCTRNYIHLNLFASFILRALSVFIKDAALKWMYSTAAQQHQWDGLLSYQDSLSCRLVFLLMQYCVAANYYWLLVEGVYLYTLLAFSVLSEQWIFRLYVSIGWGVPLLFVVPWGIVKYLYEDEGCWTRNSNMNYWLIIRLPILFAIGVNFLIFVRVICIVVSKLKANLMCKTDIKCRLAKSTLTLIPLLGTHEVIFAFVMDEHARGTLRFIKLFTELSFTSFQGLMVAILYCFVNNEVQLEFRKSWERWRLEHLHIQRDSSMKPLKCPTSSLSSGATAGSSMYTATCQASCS
T1 sequence (P01275 100-127 partner limits assumed): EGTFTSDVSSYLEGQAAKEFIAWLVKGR

This test addresses T1, GLP-1R (Homo sapiens, UniProt P43220).
T1 construct: host or cells: GLP-1R CRE-bla CHO-K1 cells
The experiment in a line: EC20 GLP-1(9-36) PAM cAMP assay: dose response of compound in the presence of fixed concentration of GLP-1(9-36). The test is classed as cell-based. As to conditions: dose response of compound in presence of fixed concentration of GLP-1(9-36), GLP-1R CRE-bla CHO-K1 cells, read-out: EC20 GLP-1(9-36) PAM EC50. Summed up: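 Positive allosteric modulation read as cAMP accumulation: compound titrations (12 points) combined with an EC20 level of GLP-1(9-36) on CHO-K1 GLP-1R CRE-bla cells, IBMX present, 30 min, 37 °C, pH 7.4 buffer. Luminescence converted to cAMP via standards; non-linear fit gave EC50 and Emax.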
In general terms: Cyclic AMP is a second messenger, typically raised through Gs and lowered through Gi signalling.
One may read the EC50 as the concentration at which the effect is half-maximal. For the molecule `C[C@@H](NC(=O)[C@H](Cc1ccc(-c2ncc(-c3ccc(-c4ccc(C(F)(F)F)cc4)c(F)c3)cn2)cc1)NC(=O)c1ccc(C(C)(C)C)s1)C(=O)O` [Compound 1140], the EC50 was less than 800 nM.

As for `Cc1cccc(-c2ccc(-c3cnc(-c4ccc(C[C@H](NC(=O)c5ccc(C(C)(C)C)s5)C(=O)N[C@H](C)C(=O)O)cc4)nc3)cc2F)c1` [Compound 1141], the EC50 is less than 800 nM.

Turning to `C[C@@H](NC(=O)[C@H](Cc1ccc(-c2ncc(-c3ccc(C4CCC(F)(F)CC4)cc3)cn2)cc1)NC(=O)c1ccc(C(C)(C)C)s1)C(=O)O` [Compound 1142], the concentration giving a half-maximal response (EC50) is less than 800 nM.

As to `C[C@@H](NC(=O)[C@H](Cc1ccc(-c2ncc(-c3ccc([C@H]4CC[C@H](C(C)(C)C)CC4)cc3)cn2)cc1)NC(=O)c1ccc(C(C)(C)C)s1)C(=O)O` [Compound 1143], the half-maximal effective concentration (EC50) is less than 800 nM.

With `C[C@@H](NC(=O)[C@H](Cc1ccc(-c2ncc(-c3ccc([C@H]4CC[C@@H](C(C)(C)C)CC4)cc3)cn2)cc1)NC(=O)c1ccc(C(C)(C)C)s1)C(=O)O` [Compound 1144], the EC50 was in the range of 800 to 2500 nM.

With `CC1CCC(c2ccc(-c3cnc(-c4ccc(C[C@H](NC(=O)c5ccc(C(C)(C)C)s5)C(=O)N[C@H](C)C(=O)O)cc4)nc3)cc2)CC1` (stereo partly shown) [Compound 1145], the EC50 was less than 800 nM.

In the case of `C[C@@H](NC(=O)[C@H](Cc1ccc(-c2ncc(-c3ccc(-c4ccc(OC(F)(F)F)cc4F)cc3)cn2)cc1)NC(=O)c1ccc(C(C)(C)C)s1)C(=O)O` [Compound 1146], the concentration for a half-maximal effect (EC50) is less than 800 nM.

As for `C[C@@H](NC(=O)[C@H](Cc1ccc(-c2ncc(-c3ccc(-c4ccc(C(F)(F)F)cc4F)cc3)cn2)cc1)NC(=O)c1ccc(C(C)(C)C)s1)C(=O)O` [Compound 1147], the EC50 is less than 800 nM.

On to `Cc1ccc(-c2ccc(-c3cnc(-c4ccc(C[C@H](NC(=O)c5ccc(C(C)(C)C)s5)C(=O)N[C@H](C)C(=O)O)cc4)nc3)cc2)c(F)c1` [Compound 1148], for which the EC50 is less than 800 nM.

For `C[C@@H](NC(=O)[C@H](Cc1ccc(-c2ncc(-c3ccc(-c4ccc(F)cc4F)cc3)cn2)cc1)NC(=O)c1ccc(C(C)(C)C)s1)C(=O)O` [Compound 1149], the concentration giving a half-maximal response (EC50) was 5000 to 10000 nM.

Regarding `C[C@@H](NC(=O)[C@H](Cc1ccc(-c2ncc(-c3ccc(C4=CCC(C)(C)CC4)cc3)cn2)cc1)NC(=O)c1ccc(C(C)(C)C)s1)C(=O)O` [Compound 1150], the EC50 was less than 800 nM.

Regarding `C[C@@H](NC(=O)[C@H](Cc1ccc(-c2ncc(-c3ccc(C4=CCC(F)(F)CC4)cc3)cn2)cc1)NC(=O)c1ccc(C(C)(C)C)s1)C(=O)O` [Compound 1151], the EC50 was less than 800 nM.

`CC[C@H]1CC[C@H](c2ccc(-c3cnc(-c4ccc(C[C@H](NC(=O)c5ccc(CC(C)C)s5)C(=O)N5CC(C(=O)O)C5)cc4)nc3)cc2)CC1` [Compound 1152]: the half-maximal effective concentration (EC50) was less than 800 nM.

In the case of `CCc1ccc(C(=O)N[C@@H](Cc2ccc(-c3ncc(-c4ccc([C@H]5CC[C@H](CC)CC5)cc4)cn3)cc2)C(=O)N2CC(C(=O)O)C2)s1` [Compound 1153], the EC50 was less than 800 nM.

With `CC[C@H]1CC[C@H](c2ccc(-c3cnc(-c4ccc(C[C@H](NC(=O)c5ccc(C6CC6)s5)C(=O)N5CC(C(=O)O)C5)cc4)nc3)cc2)CC1` [Compound 1154], the EC50 was less than 800 nM.

Consider `CC[C@H]1CC[C@H](c2ccc(-c3cnc(-c4ccc(C[C@H](NC(=O)c5ccc(CC(C)C)cc5)C(=O)N5CC(C(=O)O)C5)cc4)nc3)cc2)CC1` [Compound 1155], for which the EC50 is less than 800 nM.

As to `CCCc1ccc(C(=O)N[C@@H](Cc2ccc(-c3ncc(-c4ccc([C@H]5CC[C@H](CC)CC5)cc4)cn3)cc2)C(=O)N2CC(C(=O)O)C2)cc1` [Compound 1156], the EC50 was less than 800 nM.

Take `CCC(C)(C)c1ccc(C(=O)N[C@@H](Cc2ccc(-c3ncc(-c4ccc([C@H]5CC[C@H](CC)CC5)cc4)cn3)cc2)C(=O)N2CC(C(=O)O)C2)cc1` [Compound 1157]: the EC50 was less than 800 nM.

For `CC[C@H]1CC[C@H](c2ccc(-c3cnc(-c4ccc(C[C@H](NC(=O)c5ccc(C6CC6)cc5)C(=O)N5CC(C(=O)O)C5)cc4)nc3)cc2)CC1` [Compound 1158], the EC50 is less than 800 nM.

Turning to `CC[C@H]1CC[C@H](c2ccc(-c3cnc(-c4ccc(C[C@H](NC(=O)c5ccc(C6(C)CC6)cc5)C(=O)N5CC(C(=O)O)C5)cc4)nc3)cc2)CC1` [Compound 1159], the EC50 is less than 800 nM.

As for `CC[C@H]1CC[C@H](c2ccc(-c3cnc(-c4ccc(C[C@H](NC(=O)c5ccc(OC(C)C)cc5)C(=O)N5CC(C(=O)O)C5)cc4)nc3)cc2)CC1` [Compound 1160], the concentration giving a half-maximal response (EC50) is less than 800 nM.

Regarding `CCCCOc1ccc(CC(=O)N[C@@H](Cc2ccc(-c3ncc(-c4ccc([C@H]5CC[C@H](CC)CC5)cc4)cn3)cc2)C(=O)N2CC(C(=O)O)C2)cc1` [Compound 1161], the EC50 was 800 to 2500 nM.

With `CC[C@H]1CC[C@H](c2ccc(-c3cnc(-c4ccc(C[C@H](NC(=O)c5ccc(C(C)=O)cc5)C(=O)N5CC(C(=O)O)C5)cc4)nc3)cc2)CC1` [Compound 1162], the concentration for a half-maximal effect (EC50) is 2500 to 5000 nM.

Turning to `CC[C@H]1CC[C@H](c2ccc(-c3cnc(-c4ccc(C[C@H](NC(=O)c5ccc(C(C)(C)C)nc5)C(=O)N5CC(C(=O)O)C5)cc4)nc3)cc2)CC1` [Compound 1163], the EC50 is less than 800 nM.

For `CC[C@H]1CC[C@H](c2ccc(-c3cnc(-c4ccc(C[C@H](NC(=O)c5cnc(C(C)(C)C)nc5)C(=O)N5CC(C(=O)O)C5)cc4)nc3)cc2)CC1` [Compound 1164], the half-maximal effective concentration (EC50) is less than 800 nM.

`CC[C@H]1CC[C@H](c2ccc(-c3cnc(-c4ccc(C[C@H](NC(=O)c5cnn(C(C)(C)C)c5)C(=O)N5CC(C(=O)O)C5)cc4)nc3)cc2)CC1` [Compound 1165]: the EC50 was less than 800 nM.

As to `CC[C@H]1CC[C@H](c2ccc(-c3cnc(-c4ccc(C[C@H](NC(=O)c5cc6cc(OC)ccc6[nH]5)C(=O)N5CC(C(=O)O)C5)cc4)nc3)cc2)CC1` [Compound 1166], the 50% effective concentration (EC50) is less than 800 nM.

Consider `CC[C@H]1CC[C@H](c2ccc(-c3cnc(-c4ccc(C[C@H](NC(=O)c5ccc(C(C)C)s5)C(=O)N5CC(C(=O)O)C5)cc4)nc3)cc2)CC1` [Compound 1167], for which the EC50 was less than 800 nM.

On to `CCc1ccc(C(=O)N[C@@H](Cc2ccc(-c3ncc(-c4ccc([C@H]5CC[C@H](CC)CC5)cc4)cn3)cc2)C(=O)N2CC(C(=O)O)C2)cc1` [Compound 1168], for which the EC50 is less than 800 nM.

Turning to `CC[C@H]1CC[C@H](c2ccc(-c3cnc(-c4ccc(C[C@H](NC(=O)c5ccc(C(C)C)cc5)C(=O)N5CC(C(=O)O)C5)cc4)nc3)cc2)CC1` [Compound 1169], the EC50 is less than 800 nM.

As for `CC[C@H]1CC[C@H](c2ccc(-c3cnc(-c4ccc(C[C@H](NC(=O)c5ccc(C(C)(C)C)cc5)C(=O)N5CC(C(=O)O)C5)cc4)nc3)cc2)CC1` [Compound 1170], the EC50 was less than 800 nM.

Consider `C[C@@H](NC(=O)[C@H](Cc1ccc(-c2ncc(-c3ccc(-c4ccc(OC(F)(F)F)cc4)cc3F)cn2)cc1)NC(=O)c1ccc(C(C)(C)C)s1)C(=O)O` [Compound 1171], for which the half-maximal effective concentration (EC50) was less than 800 nM.

With `Cc1ccc(-c2ccc(-c3cnc(-c4ccc(C[C@H](NC(=O)c5ccc(C(C)(C)C)s5)C(=O)N[C@H](C)C(=O)O)cc4)nc3)c(F)c2)cc1` [Compound 1172], the 50% effective concentration (EC50) is 800 to 2500 nM.

`CCc1ccc(-c2ccc(-c3cnc(-c4ccc(C[C@H](NC(=O)c5ccc(C(C)(C)C)s5)C(=O)N[C@H](C)C(=O)O)cc4)nc3)c(F)c2)cc1` [Compound 1173]: the EC50 is less than 800 nM.
